Legend:
Assay type in all cases: physicochemical
[1] = Dynamic vapor sorption (DVS) hygroscopicity
Protocol: Dynamic vapor sorption (DVS) was measured using DVS advantage (Surface Measurement Systems Ltd). The samples were tested under isotherm (25° C.) at a targeted RH of 0 to 95% full cycle in step mode. For an isotherm test, the chamber temperature is maintained by a water bath at constant 25.0±1.0° C. The relative humidity in the sample chamber is generated by combining different flows of wet and dry nitrogen with variable flow rates. The analysis was performed in 10% RH increments. Sampling rate is 1 sec save data rate is 20 sec. The dm/dt (%) value was set at 0.001 with a dm/dt window of 5 min., a minimum stability duration time of 10 min, and a maximum stage time of 180 min. The sample's equilibrium weight corresponding to each RH was recorded. A sorption isotherm is obtained by plotting equilibrium moisture content versus RH.

[2] = Estimated solubility of free base and salt forms in solvents (aliquot addition, visual)
Protocol: The experiments were carried out by adding the test solvent in aliquots to weighed portions of solid. Whether dissolution had occurred was judged by visual inspection after addition of each solvent aliquot. Solubility numbers were calculated by dividing the total amount of solvent used to dissolve the sample by the weight of the sample. […] The solubility number is expressed as “greater than or equal to” if dissolution occurred on addition of the first solvent aliquot.

[3] = Solid state stability of free base and salt forms under stress storage conditions;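 for Physical stability: Physical stability judged by XRPD check of crystalline form at end of study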
Protocol: The solid samples were analyzed for both chemical and chiral stability.

Cl.Cl.O=C1CC[C@H](N2C(=O)c3cccc(NCc4ccc(CN5CC(N6CCOCC6)C5)cc4F)c3C2=O)C(=O)N1
hygroscopicity (DVS) ([1]; below 90% RH): highly hygroscopic
moisture gain (DVS) ([1]; from 80% RH to 90% RH): ~6.7%
water content released during desorption (DVS) ([1]; from 90 to 80% RH): ~7.0%
moisture picked up (DVS) ([1]; from dry up to 80% RH): ~8.0 % wt

O=C1CC[C@H](N2C(=O)c3cccc(NCc4ccc(CN5CC(N6CCOCC6)C5)cc4F)c3C2=O)C(=O)N1 [Compound 1 amorphous free base]
hygroscopicity (DVS) ([1]; below 75% RH): relatively high hygroscopicity
sorption/desorption reversibility (DVS) ([1]; during two full cycles): almost reversible
moisture picked up (DVS) ([1]; from dry up to 90% RH): ~6.0 % wt

O=C1CC[C@H](N2C(=O)c3cccc(NCc4ccc(CN5CC(N6CCOCC6)C5)cc4F)c3C2=O)C(=O)N1 [Free Base]
Solubility ([2]; 2-methyl tetrahydrofuran): 30000 µg/mL
Solubility ([2]; 2-propanol): <1000 µg/mL
Solubility ([2]; 95:5 2-PrOH/water): 2000 µg/mL
Solubility ([2]; 95:5 ACN/water): 27000 µg/mL
Solubility ([2]; 95:5 THF/water): 20000 µg/mL
Solubility ([2]; 95:5 acetone/water): 31000 µg/mL
Solubility ([2]; N-methyl pyrrolidone): 31000 µg/mL
Solubility ([2]; acetone): 52000 µg/mL
Solubility ([2]; acetonitrile): 33000 µg/mL
Solubility ([2]; anisole): 26000 µg/mL
Solubility ([2]; dichloromethane): 59000 µg/mL
Solubility ([2]; dimethylacetamide): 34000 µg/mL
Solubility ([2]; ethanol): 1000 µg/mL
Solubility ([2]; ethyl acetate): 33000 µg/mL
Solubility ([2]; ethyl formate): 30000 µg/mL
Solubility ([2]; isopropyl acetate): 6000 µg/mL
Solubility ([2]; methanol): 2000 µg/mL
Solubility ([2]; methyl ethyl ketone): 29000 µg/mL
Solubility ([2]; methyl tert-butyl ether): <1000 µg/mL
Solubility ([2]; nitromethane): 34000 µg/mL
Solubility ([2]; tetrahydrofuran): 28000 µg/mL
Solubility ([2]; toluene): 3000 µg/mL
Solubility ([2]; water): <1000 µg/mL

O=C1CC[C@H](N2C(=O)c3cccc(NCc4ccc(CN5CC(N6CCOCC6)C5)cc4F)c3C2=O)C(=O)N1 [Free base]
Chemical (%) ([3]; 40° C.): 98.44%
Chiral (%) ([3]; 40° C.): 99.03%
Chemical (%) ([3]; 40° C./80% RH): 98.56%
Chiral (%) ([3]; 40° C./80% RH): 99.02%
Chemical (%) ([3]; 60° C.): 95.80%
Chiral (%) ([3]; 60° C.): 98.69%
Physical stability ([3]; 60° C.): Unstable
Chemical (%) ([3]; 60° C./75% RH): 98.10%
Chiral (%) ([3]; 60° C./75% RH): 83.04%
Physical stability ([3]; 60° C./75% RH): Unstable
Chemical (%) ([3]; 70° C.): 85.68%
Chiral (%) ([3]; 70° C.): 95.57%
Physical stability ([3]; 70° C.): Unstable
Chemical (%) ([3]; 70° C./80% RH): 93.29%
Chiral (%) ([3]; 70° C./80% RH): 52.01%
Physical stability ([3]; 70° C./80% RH): Unstable
Chemical (%) ([3]; Ambient): 98.95%
Chiral (%) ([3]; Ambient): 99.16%

Cl.O=C1CC[C@H](N2C(=O)c3cccc(NCc4ccc(CN5CC(N6CCOCC6)C5)cc4F)c3C2=O)C(=O)N1 [HC1 salt]
Chemical (%) ([3]; 40° C.): 99.13%
Chiral (%) ([3]; 40° C.): 99.29%
Physical stability ([3]; 40° C.): Stable
Chemical (%) ([3]; 40° C./80% RH): 99.56%
Chiral (%) ([3]; 40° C./80% RH): 99.22%
Physical stability ([3]; 40° C./80% RH): Stable
Chemical (%) ([3]; 60° C.): 99.35%
Chiral (%) ([3]; 60° C.): 99.02%
Physical stability ([3]; 60° C.): Stable
Chemical (%) ([3]; 60° C./75% RH): 99.56%
Chiral (%) ([3]; 60° C./75% RH): 98.70%
Physical stability ([3]; 60° C./75% RH): Stable
Chemical (%) ([3]; 70° C.): 99.32%
Chiral (%) ([3]; 70° C.): 99.13%
Physical stability ([3]; 70° C.): Stable
Chemical (%) ([3]; 70° C./80% RH): 99.43%
Chiral (%) ([3]; 70° C./80% RH): 98.91%
Physical stability ([3]; 70° C./80% RH): Stable
Chemical (%) ([3]; Ambient): 99.08%
Chiral (%) ([3]; Ambient): 99.26%

Cl.O=C1CC[C@H](N2C(=O)c3cccc(NCc4ccc(CN5CC(N6CCOCC6)C5)cc4F)c3C2=O)C(=O)N1 [HCl Salt]
Solubility ([2]; 2-methyl tetrahydrofuran): <1000 µg/mL
Solubility ([2]; 2-propanol): <1000 µg/mL
Solubility ([2]; 95:5 2-PrOH/water): <1000 µg/mL
Solubility ([2]; 95:5 ACN/water): 3000 µg/mL
Solubility ([2]; 95:5 THF/water): 1000 µg/mL
Solubility ([2]; 95:5 acetone/water): <1000 µg/mL
Solubility ([2]; N-methyl pyrrolidone): 1000 µg/mL
Solubility ([2]; acetone): <1000 µg/mL
Solubility ([2]; acetonitrile): <1000 µg/mL
Solubility ([2]; anisole): <1000 µg/mL
Solubility ([2]; dichloromethane): <1000 µg/mL
Solubility ([2]; dimethylacetamide): 1000 µg/mL
Solubility ([2]; dimethylsulfoxide): 38000 µg/mL
Solubility ([2]; ethanol): <1000 µg/mL
Solubility ([2]; ethyl acetate): <1000 µg/mL
Solubility ([2]; ethyl formate): <1000 µg/mL
Solubility ([2]; isopropyl acetate): <1000 µg/mL
Solubility ([2]; methanol): 2000 µg/mL
Solubility ([2]; methyl ethyl ketone): <1000 µg/mL
Solubility ([2]; methyl tert-butyl ether): <1000 µg/mL
Solubility ([2]; nitromethane): <1000 µg/mL
Solubility ([2]; tetrahydrofuran): <1000 µg/mL
Solubility ([2]; toluene): <1000 µg/mL
Solubility ([2]; water): 2000 µg/mL

Fumarate
Chemical (%) ([3]; 40° C.): 98.64%
Chiral (%) ([3]; 40° C.): 95.39%
Physical stability ([3]; 40° C.): Stable
Chemical (%) ([3]; 40° C./80% RH): 98.69%
Chiral (%) ([3]; 40° C./80% RH): 94.55%
Physical stability ([3]; 40° C./80% RH): Stable
Chemical (%) ([3]; 60° C.): 97.43%
Chiral (%) ([3]; 60° C.): 95.54%
Physical stability ([3]; 60° C.): Stable
Chemical (%) ([3]; 60° C./75% RH): 98.19%
Chiral (%) ([3]; 60° C./75% RH): 93.14%
Physical stability ([3]; 60° C./75% RH): Stable
Chemical (%) ([3]; 70° C.): 95.94%
Chiral (%) ([3]; 70° C.): 95.11%
Physical stability ([3]; 70° C.): Stable
Chemical (%) ([3]; 70° C./80% RH): 93.79%
Chiral (%) ([3]; 70° C./80% RH): 91.52%
Physical stability ([3]; 70° C./80% RH): Stable
Chemical (%) ([3]; Ambient): 98.77%
Chiral (%) ([3]; Ambient): 95.82%
Solubility ([2]; 2-methyl tetrahydrofuran): <1000 µg/mL
Solubility ([2]; 2-propanol): <1000 µg/mL
Solubility ([2]; 95:5 2-PrOH/water): 1000 µg/mL
Solubility ([2]; 95:5 ACN/water): 2000 µg/mL
Solubility ([2]; 95:5 THF/water): 8000 µg/mL
Solubility ([2]; 95:5 acetone/water): 2000 µg/mL
Solubility ([2]; N-methyl pyrrolidone): 17000 µg/mL
Solubility ([2]; acetone): <1000 µg/mL
Solubility ([2]; acetonitrile): <1000 µg/mL
Solubility ([2]; anisole): <1000 µg/mL
Solubility ([2]; dichloromethane): <1000 µg/mL
Solubility ([2]; dimethylacetamide): 23000 µg/mL
Solubility ([2]; dimethylsulfoxide): 36000 µg/mL
Solubility ([2]; ethanol): <1000 µg/mL
Solubility ([2]; ethyl acetate): <1000 µg/mL
Solubility ([2]; ethyl formate): <1000 µg/mL
Solubility ([2]; isopropyl acetate): <1000 µg/mL
Solubility ([2]; methanol): 3000 µg/mL
Solubility ([2]; methyl ethyl ketone): <1000 µg/mL
Solubility ([2]; methyl tert-butyl ether): <1000 µg/mL
Solubility ([2]; nitromethane): <1000 µg/mL
Solubility ([2]; tetrahydrofuran): 1000 µg/mL
Solubility ([2]; toluene): <1000 µg/mL
Solubility ([2]; water): 2000 µg/mL

Tosylate
Chemical (%) ([3]; 40° C.): 99.18%
Chiral (%) ([3]; 40° C.): 98.52%
Physical stability ([3]; 40° C.): Stable
Chemical (%) ([3]; 40° C./80% RH): 98.84%
Chiral (%) ([3]; 40° C./80% RH): 98.48%
Physical stability ([3]; 40° C./80% RH): Stable
Chemical (%) ([3]; 60° C.): 99.01%
Chiral (%) ([3]; 60° C.): 98.46%
Physical stability ([3]; 60° C.): Stable
Chemical (%) ([3]; 60° C./75% RH): 96.76%
Chiral (%) ([3]; 60° C./75% RH): 98.10%
Physical stability ([3]; 60° C./75% RH): Stable
Chemical (%) ([3]; 70° C.): 98.58%
Chiral (%) ([3]; 70° C.): 98.43%
Physical stability ([3]; 70° C.): Stable
Chemical (%) ([3]; 70° C./80% RH): 95.73%
Chiral (%) ([3]; 70° C./80% RH): 97.64%
Physical stability ([3]; 70° C./80% RH): Stable
Chemical (%) ([3]; Ambient): 99.19%
Chiral (%) ([3]; Ambient): 98.49%
Solubility ([2]; 2-methyl tetrahydrofuran): <1000 µg/mL
Solubility ([2]; 2-propanol): <1000 µg/mL
Solubility ([2]; 95:5 2-PrOH/water): <1000 µg/mL
Solubility ([2]; 95:5 ACN/water): 17000 µg/mL
Solubility ([2]; 95:5 THF/water): 16000 µg/mL
Solubility ([2]; 95:5 acetone/water): 3000 µg/mL
Solubility ([2]; N-methyl pyrrolidone): 17000 µg/mL
Solubility ([2]; acetone): <1000 µg/mL
Solubility ([2]; acetonitrile): 1000 µg/mL
Solubility ([2]; anisole): <1000 µg/mL
Solubility ([2]; dichloromethane): 1000 µg/mL
Solubility ([2]; dimethylacetamide): 30000 µg/mL
Solubility ([2]; dimethylsulfoxide): 34000 µg/mL
Solubility ([2]; ethanol): <1000 µg/mL
Solubility ([2]; ethyl acetate): <1000 µg/mL
Solubility ([2]; ethyl formate): <1000 µg/mL
Solubility ([2]; isopropyl acetate): <1000 µg/mL
Solubility ([2]; methanol): 3000 µg/mL
Solubility ([2]; methyl ethyl ketone): <1000 µg/mL
Solubility ([2]; methyl tert-butyl ether): <1000 µg/mL
Solubility ([2]; nitromethane): 4000 µg/mL
Solubility ([2]; tetrahydrofuran): <1000 µg/mL
Solubility ([2]; toluene): <1000 µg/mL
Solubility ([2]; water): 2000 µg/mL

Reference: patent US11578056B2, “Solid forms comprising (S)-2-(2,6-dioxopiperidin-3-yl)-4-((2-fluoro-4-((3-morpholinoazetidin-1-yl)methyl)benzyl)amino)isoindoline-1,3-dione and salts thereof, and compositions comprising and methods of using the same” (Celgene Corporation, priority 2019, dated 2023)
